These results are taken from patent US10532065B2, “Bisphosphonic acid derivative and application for same” (NAGASAKI UNIVERSITY, priority 2014, dated 2020).

pEC50, pIC50: −log10 of the molar value. Some results are limits rather than exact numbers.

Common to all, as to format: cell-based
One experiment relates to EJ-1 cells / γδ T cells. The experiment in a line: TNF-α production from γδ T cells stimulated by compound-pretreated EJ-1 cells (indirect antitumor action, ELISA). The settings on record: for pEC50: EJ-1 pretreated 4 hr with compound, 16 hr with γδ T cells, TNF-α ELISA, read-out: TNF-α50. The protocol: The indirect antitumor action of bisphosphonic acid POM esters and bisphosphonic acids was studied by comparison using EJ-1. In principle, EJ-1 is treated with a compound, washed, and reacted with γδ T cells, and the cytotoxic ability is studied by comparison, by quantifying TNF-α produced by γδ T cells during cell disordering. TNF-α is generally used as an index of γδ T cell induction ability and/or proliferative capacity, and γδ T cells are considered to be induced and/or proliferated in proportion to the TNF-α amount (Journal of Immunology, 154, 5986-5994 (1995)). Since the produced TNF-α is what is called a tumor necrosis factor, it is considered to have an action to lower proliferation of cancer cells or induce cell death.
Thereto was added a solution (500 μl) of compounds 3, 5, 6, 7, which are bisphosphonic acid POM ester derivatives, obtained by serially diluting 10 mM stock solution 10-fold from 20 μM, or a solution (500 μl) of bisphosphonic acid 10, 12, 13, 14 compound obtained by serially diluting 10-fold from 200 μM, and the cells were suspended well. These conical tubes were stood at 37° C. for 4 hr, and the cells were washed 3 times with 5 ml of culture medium. To these cells was added 500 μl of medium, and the cells were suspended well. […] The cell culture medium was suspended well, and the plate was centrifuged at 1,700 rpm, 4° C. for 2 min and the culture supernatant (150 μl) was taken and placed in another round-bottomed 96 well plate. The plate was frozen at −80° C. overnight, left standing at room temperature for 1 hr, stirred well and 100 μl thereof was subjected to ELISA of TNF-α. The content of TNF-α was calculated from the analytical curve of TNF-α. These were performed in triplicate, and a graph showing bisphosphonic acid POM ester derivative and the corresponding bisphosphonic acid as one pair was plotted. […] The results of bisphosphonic acid POM ester derivative are shown by -●-, and the results of bisphosphonic acid are shown by -◯-.
The indirect antitumor action of bisphosphonic acid POM esters and bisphosphonic acids was quantitatively studied by comparison using EJ-1. […] Thereto was added a solution (500 μl) of a bisphosphonic acid POM ester derivative obtained by serially diluting 10 mM stock solution 10-fold from 20 μM, or a bisphosphonic acid solution (500 μl) serially diluted 10-fold from 200 μM was added, and the cells were suspended well. These conical tubes were stood at 37° C. for 4 hr, and the cells were washed 3 times with 5 ml of culture medium. To these cells was added 500 μl of medium, and the cells were suspended well. […] The cell culture medium was suspended well, and the plate was centrifuged at 1,700 rpm, 4° C. for 2 min and the culture supernatant (150 μl) was taken and placed in another round-bottomed 96 well plate. The plate was frozen at −80° C. overnight, left standing at room temperature for 1 hr, stirred well and 100 μl thereof was subjected to ELISA of TNF-α. The content of TNF-α was calculated from the analytical curve of TNF-α. These were performed in triplicate, and a half of the concentration of compounds 1-7, which are bisphosphonic acid POM ester derivatives, and compounds 8-14, which are bisphosphonic acids, necessary for producing the maximum amount of TNF-α from γδ T cells was calculated as TNF-α50, and summarized in Table 6.
Therefore, the TNF-α50 value of various bisphosphonic acid POM ester derivatives was calculated. […] Thereto was added a solution (500 μl) of compounds 1-7 and 15-39, which are bisphosphonic acid POM ester derivatives, and compound 42, which is other bisphosphonic acid ester derivative, obtained by serially diluting 10 mM stock solution 10-fold from 20 μM, and the cells were suspended well. These conical tubes were stood at 37° C. for 4 hr, and the cells were washed 3 times with 5 ml of culture medium. To these cells was added 500 μl of medium, and the cells were suspended well. […]
(In general: An ELISA detects its analyte on a solid surface through an enzyme-linked reagent.)

The subject of the next experiment is U937 cells. The experiment in a line: U937 cell growth inhibition (direct antitumor action, CellTiterGlo). The settings on record: for pIC50: U937 cell growth inhibition, 4 days culture; for direct antitumor activity (in words): U937 growth inhibition. The protocol: (§1) The direct antitumor action of bisphosphonic acid POM ester and bisphosphonic acid was studied by comparison using U937.
(§2) The direct antitumor action of various bisphosphonic acid POM esters was studied by comparison using U937 and EJ-1. The measurement was performed according to Experimental Example 2 and Experimental Example 4.
(Cellular ATP, detected with luciferase, serves as a proxy for viable cell number.)

In a further experiment the test system is EJ-1 cells. Description: EJ-1 cell growth inhibition (direct antitumor action, CellTiterGlo). As to conditions: for pIC50: EJ-1 (bladder cancer) growth inhibition, 4 days culture; for direct antitumor activity (in words): EJ-1 growth inhibition. The protocol:
as §1
The direct antitumor action of bisphosphonic acid POM ester derivatives and bisphosphonic acids was studied by comparison using EJ-1. It was performed in the same manner as in Experimental Example 1 except that EJ-1 was used as the cell to be used. For recovery of the cells, a conventional EDTA trypsin treatment was performed.
The direct antitumor action of bisphosphonic acid POM esters and bisphosphonic acids was studied by comparison using EJ-1. It was performed in the same manner as in Experimental Example 2 except that EJ-1 was used as the cell to be used. For recovery of the cells, a conventional EDTA trypsin treatment was performed.
as §2

As for `CC(C)(C)C(=O)OCOP(=O)(OCOC(=O)C(C)(C)C)C(CNc1ccc(-c2ccccc2)cn1)P(=O)(OCOC(=O)C(C)(C)C)OCOC(=O)C(C)(C)C` [Compound 19, tetrakispivaloyloxymethyl 2-(5-phenylpyridin-2-ylamino)ethylidene-1,1-bisphosphonate], in the experiment with EJ-1 cells / γδ T cells, the pEC50 was under 5.00. Further, the pIC50 in the experiment on U937 cells was 5.17; in the experiment with EJ-1 cells it was 5.02.

Regarding `Cc1cccc(NCC(P(=O)(OCOC(=O)C(C)(C)C)OCOC(=O)C(C)(C)C)P(=O)(OCOC(=O)C(C)(C)C)OCOC(=O)C(C)(C)C)n1` [Compound 20, tetrakispivaloyloxymethyl 2-(6-methylpyridin-2-ylamino)ethylidene-1,1-bisphosphonate], in the experiment with EJ-1 cells / γδ T cells, the pEC50 is 5.43. Besides, the pIC50 in the experiment on U937 cells is 5.16; in the experiment on EJ-1 cells, 4.80.

In the case of `CC(C)(C)C(=O)OCOP(=O)(OCOC(=O)C(C)(C)C)C(CNc1cccc(Br)n1)P(=O)(OCOC(=O)C(C)(C)C)OCOC(=O)C(C)(C)C` [Compound 21, tetrakispivaloyloxymethyl 2-(6-bromopyridin-2-ylamino)ethylidene-1,1-bisphosphonate], the pEC50 in the experiment on EJ-1 cells / γδ T cells is under 5.00. In addition, the pIC50 in the experiment with U937 cells was 5.21; in the experiment on EJ-1 cells, 5.05.

As to `CCCCCCCCc1ccc(NCC(P(=O)(OCOC(=O)C(C)(C)C)OCOC(=O)C(C)(C)C)P(=O)(OCOC(=O)C(C)(C)C)OCOC(=O)C(C)(C)C)nc1` [Compound 22, tetrakispivaloyloxymethyl 2-(5-octanylpyridin-2-ylamino)ethylidene-1,1-bisphosphonate], the pEC50 in the experiment on EJ-1 cells / γδ T cells was 5.32. Besides, the pIC50 is 5.47 in the experiment with U937 cells and 5.43 with EJ-1 cells.

Take `CCCCCCCCc1cccnc1NCC(P(=O)(OCOC(=O)C(C)(C)C)OCOC(=O)C(C)(C)C)P(=O)(OCOC(=O)C(C)(C)C)OCOC(=O)C(C)(C)C` [Compound 23, tetrakispivaloyloxymethyl 2-(3-octanylpyridin-2-ylamino)ethylidene-1,1-bisphosphonate]: the pEC50 with EJ-1 cells / γδ T cells was 5.47. The negative-log IC50 (pIC50) was 5.46 in the experiment with U937 cells and 5.35 in the experiment with EJ-1 cells.

For `CCCCCCCCc1cccc(NCC(P(=O)(OCOC(=O)C(C)(C)C)OCOC(=O)C(C)(C)C)P(=O)(OCOC(=O)C(C)(C)C)OCOC(=O)C(C)(C)C)n1` [Compound 24, tetrakispivaloyloxymethyl 2-(6-octanylpyridin-2-ylamino)ethylidene-1,1-bisphosphonate], the pEC50 in the experiment with EJ-1 cells / γδ T cells was under 5.00. The pIC50 with U937 cells is 5.52; in the experiment with EJ-1 cells, 5.20.

`COc1ccc(-c2cccnc2NCC(P(=O)(OCOC(=O)C(C)(C)C)OCOC(=O)C(C)(C)C)P(=O)(OCOC(=O)C(C)(C)C)OCOC(=O)C(C)(C)C)cc1` [Compound 25, tetrakispivaloyloxymethyl 2-[3-(4-methoxyphenyl)pyridin-2-ylamino]ethylidene-1,1-bisphosphonate]: the pEC50 in the experiment with EJ-1 cells / γδ T cells was under 5.00. The negative logarithm of the IC50 (pIC50) with U937 cells is 5.21; in the experiment with EJ-1 cells, 5.06.

`CC(C)(C)C(=O)OCOP(=O)(OCOC(=O)C(C)(C)C)C(CNc1ncccc1-c1ccc(F)cc1)P(=O)(OCOC(=O)C(C)(C)C)OCOC(=O)C(C)(C)C` [Compound 26, tetrakispivaloyloxymethyl 2-[3-(4-fluorophenyl)pyridin-2-ylamino]ethylidene-1,1-bisphosphonate]: the pEC50 in the experiment with EJ-1 cells / γδ T cells is under 5.00. In addition, the values for the pIC50 with U937 cells and with EJ-1 cells were 5.15 and 5.06, respectively.

Turning to `CC(C)(C)C(=O)OCOP(=O)(OCOC(=O)C(C)(C)C)C(CNc1ncccc1O)P(=O)(OCOC(=O)C(C)(C)C)OCOC(=O)C(C)(C)C` [Compound 27, tetrakispivaloyloxymethyl 2-(3-hydroxypyridin-2-ylamino)ethylidene-1,1-bisphosphonate], the pEC50 in the experiment on EJ-1 cells / γδ T cells is 5.34. Besides, the values for the pIC50 with U937 cells and with EJ-1 cells were 5.05 and 4.89, respectively.

As to `CC(C)(C)C(=O)OCOP(=O)(OCOC(=O)C(C)(C)C)C(CNc1cc(Br)ccn1)P(=O)(OCOC(=O)C(C)(C)C)OCOC(=O)C(C)(C)C` [Compound 28, tetrakispivaloyloxymethyl 2-(4-bromopyridin-2-ylamino)ethylidene-1,1-bisphosphonate], the pEC50 in the experiment with EJ-1 cells / γδ T cells was 5.19. Moreover, the negative logarithm of the IC50 (pIC50) with U937 cells is 5.15; with EJ-1 cells it was 5.22.

With `CC(C)(C)C(=O)OCOP(=O)(OCOC(=O)C(C)(C)C)C(CNc1ccnc(Br)c1)P(=O)(OCOC(=O)C(C)(C)C)OCOC(=O)C(C)(C)C` [Compound 29, tetrakispivaloyloxymethyl 2-(2-bromopyridin-4-ylamino)ethylidene-1,1-bisphosphonate], in the experiment with EJ-1 cells / γδ T cells, the pEC50 was under 5.00. For the same molecule, the negative logarithm of the IC50 (pIC50) with U937 cells was 5.18; with EJ-1 cells it was 4.92.

For `CC(C)(C)C(=O)OCOP(=O)(OCOC(=O)C(C)(C)C)C(CNc1ccc2ccccc2n1)P(=O)(OCOC(=O)C(C)(C)C)OCOC(=O)C(C)(C)C` [Compound 30, tetrakispivaloyloxymethyl 2-(quinolin-2-ylamino)ethylidene-1,1-bisphosphonate], the pEC50 with EJ-1 cells / γδ T cells was under 5.00. For the same molecule, the pIC50 was 5.18 in the experiment with U937 cells and 5.00 in the experiment with EJ-1 cells.

For the molecule `CC(C)(C)C(=O)OCOP(=O)(OCOC(=O)C(C)(C)C)C(Cn1ccc2cccnc21)P(=O)(OCOC(=O)C(C)(C)C)OCOC(=O)C(C)(C)C` [Compound 31, tetrakispivaloyloxymethyl 2-(7-azaindol-1-yl)ethylidene-1,1-bisphosphonate], the pEC50 in the experiment with EJ-1 cells / γδ T cells was 5.80. In addition, in the experiment on U937 cells, the pIC50 was 5.66 and the “direct antitumor activity (in words)” value is reported as “high activity”. In the experiment on EJ-1 cells, the pIC50 was 5.77 and the “direct antitumor activity (in words)” value was “high activity”.

As for `CC(C)(C)C(=O)OCOP(=O)(OCOC(=O)C(C)(C)C)C(CNc1cc[nH]n1)P(=O)(OCOC(=O)C(C)(C)C)OCOC(=O)C(C)(C)C` [Compound 32, tetrakispivaloyloxymethyl 2-(pyrazol-3-ylamino) ethylidene-1,1-bisphosphonate], in the experiment with EJ-1 cells / γδ T cells, the pEC50 is 5.36. Besides, the negative logarithm of the IC50 (pIC50) was 5.20 in the experiment on U937 cells and 4.92 in the experiment with EJ-1 cells.

On to `Cc1csc(NCC(P(=O)(OCOC(=O)C(C)(C)C)OCOC(=O)C(C)(C)C)P(=O)(OCOC(=O)C(C)(C)C)OCOC(=O)C(C)(C)C)n1` [Compound 33, tetrakispivaloyloxymethyl 2-(4-methylthiazol-2-ylamino)ethylidene-1,1-bisphosphonate], for which, in the experiment with EJ-1 cells / γδ T cells, the pEC50 is 5.44. In addition, the pIC50 with U937 cells was 5.30; in the experiment with EJ-1 cells, 5.38.

For `Cc1cnc(NCC(P(=O)(OCOC(=O)C(C)(C)C)OCOC(=O)C(C)(C)C)P(=O)(OCOC(=O)C(C)(C)C)OCOC(=O)C(C)(C)C)s1` [Compound 34, tetrakispivaloyloxymethyl 2-(5-methylthiazol-2-ylamino)ethylidene-1,1-bisphosphonate], in the experiment on EJ-1 cells / γδ T cells, the pEC50 is 7.20. The “TNF-α production induction activity (in words)” value with EJ-1 cells / γδ T cells (EJ-1 pretreated with compound, γδ T cells) is recorded as “high activity”. Besides, the results for the negative-log IC50 (pIC50) in the experiment with U937 cells and with EJ-1 cells were 5.60 and 5.96, respectively. In addition, the “direct antitumor activity (in words)” value with U937 cells and with EJ-1 cells was “high activity” throughout.

Broadly, the pIC50 is −log10 of the IC50, conventionally taken in molar units.
